Measurements as given in patent US12570684B2 (UNIVERSITY OF TENNESSEE RESEARCH FOUNDATION, priority 2020, dated 2026).
“And” between values parts separate entries of the source, which are not always exact repeats. Equal values may be shown once. Read-outs that look alike come from different tables or passages of the source.

How the values were obtained:
[1] = target: WecA (E. coli) (Escherichia coli, UniProt P0AC78); test: WecA assay
Method: Preparation of membrane fraction P-60 containing WecA. E. coli B21 wecA strain were harvested by centrifugation (4,700 rpm) at 4° C. followed by washing with 0.9% saline solution (thrice). The washed cell pellets were washed with homogenization buffer (containing 50 mM K2HPO4, 5 mM MgCl2, 5 mM 1,4-dithio-DL-threitol, and 10% glycerol, pH=7.2) (thrice), and approximately 5 g of pellet (wet weight) was collected. The washed cell pellets were suspended in homogenization buffer and disrupted by probe sonication on ice (5 s on and 2 s off for 1 min, then cool down for 1.5 min., 5 cycles, cool down for 15 min, and then, 5 s on and 2 s off for 1 min., cool down for 1.5 min, 5 cycles). The resulting suspension was centrifuged at 4,700×g for 15 min. at 4° C. to remove unbroken cells. The lysate was centrifuged at 25,000×g for 20 min. at 4° C. The supernatant was subjected to ultracentrifugation at 60,000×g for 1 h at 4° C. The supernatant was discarded, and the membrane fraction containing WecA enzyme (P-60) was suspended in the Tris-HCl buffer (pH=7.5). Total protein concentrations were approximately 8 to 10 mg/mL. Aliquots were stored in Eppendorf tubes at −80° C.

[2] = test system: Vero; test: MTT cytotoxicity assay; assay type: cell-based; settings: for IC50: MTT, 72 h
Method: (§1) Cell lines. The human primary PDAC cell lines PANC-1 (ATCC CRL 1469); Capan-2 (ATCC HTB-80) and metastatic PDAC cell lines Capan-1 (ATCC HTB-79), AsPC-1 (ATCC CRL-1682), L1210 (ATCC CCL-219), KB (ATCC CCL-17), HeLa, SiHa (ATCC HTB-35), HCT-116 (ATCC CCL-247), DLD-1 (ATCC CCL221), hTERT-HPNE (ATCC CRL-4023), Vero (ATCC CCL-81) were purchased from the ATCC. The cell lines were cultured and maintained in the media as recommended by the supplier. The cell lines were regularly tested for mycoplasma contamination and authenticated. In addition to ATCC cell lines, Dr. Glazer's lab generated patient-derived PDAC cell line, PD002. PD002 Cells were maintained and cultured in DMEM medium supplemented with 20% FBS and 100 IU/mL penicillin and incubated at 37° C. with 5% CO2.
(§2) MTT cytotoxicity assay. To study the effect of treatment with DPAGT1 inhibitors on the growth and proliferation of cells, a fixed number of cells (5×10^4 cells/well, 196 μL) were plated in a 96 well plate. Into each well 5 μL of drug concentration was added. After 72 h of incubation with drugs at 37° C., 5% CO2, 10 μL of MTT solution (5 mg/mL in PBS) was added and incubated another 3 h at 37° C., 5% CO2. The medium was removed, and DMSO (200 μL/well) was added. Viability was assessed on the basis of cellular conversion of MTT into a purple formazan product. The absorbance of the colored formazan product was measured at 570 nm by BioTek Synergy HT Spectrophotometer.

[3] = test system: PD002; test: MTT cytotoxicity assay; assay type: cell-based; settings: MTT, 72 h
Method: as §1, §2

[4] = test system: HPNE; test: MTT cytotoxicity assay; assay type: cell-based; settings: for IC50: MTT, 72 h
Method: as §1, §2

[5] = test system: KB; test: MTT cytotoxicity assay; assay type: cell-based; settings: 72 h
Method: as §1, §2

[6] = test system: SiHa; test: MTT cytotoxicity assay; assay type: cell-based; settings: 72 h
Method: as §1, §2

[7] = test system: L1210; test: MTT cytotoxicity assay; assay type: cell-based; settings: for IC50: MTT, 72 h
Method: as §1, §2

[8] = test system: DLD-1; test: MTT cytotoxicity assay; assay type: cell-based
Method: as §1, §2

[9] = test system: HCT-116; test: MTT cytotoxicity assay; assay type: cell-based
Method: as §1, §2

[10] = test system: WecA; settings: background; cited from earlier work
[11] = target: MraY/MurX (Mycobacterium tuberculosis, UniProt P9WMW7); settings: background; cited from earlier work
[12] = target: T1, DPAGT1 (Human) (Homo sapiens, UniProt Q9H3H5); test: DPAGT1 assay; assay type: biochemical
T1 construct: made in house; host or cells: Expi293 cells (suspension)
T1 sequence (Q9H3H5 1-408): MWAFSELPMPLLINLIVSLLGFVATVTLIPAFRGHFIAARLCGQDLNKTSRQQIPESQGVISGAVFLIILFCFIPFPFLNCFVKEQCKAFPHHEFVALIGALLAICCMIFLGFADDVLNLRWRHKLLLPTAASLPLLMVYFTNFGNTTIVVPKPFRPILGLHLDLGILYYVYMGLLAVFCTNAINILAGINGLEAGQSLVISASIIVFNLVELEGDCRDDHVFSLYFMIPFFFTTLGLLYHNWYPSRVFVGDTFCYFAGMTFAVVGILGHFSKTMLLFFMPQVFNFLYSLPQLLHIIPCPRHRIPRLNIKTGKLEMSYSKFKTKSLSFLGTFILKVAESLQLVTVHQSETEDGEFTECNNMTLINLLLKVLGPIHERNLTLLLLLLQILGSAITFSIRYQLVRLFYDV
Method: DPAGT1 expression and purification. DPAGT1 was expressed in suspended Expi293 cells for 36 h. The cells were lysed by drawing through a 26 g needle (10 times) and membrane protein was extracted using buffer containing 1% decyl f3-D-maltopyranoside detergent. DPAGT1 was purified using HA-agarose resin and a superdex 200 size exclusion column.

[13] = test system: AsPC-1; test: MTT cytotoxicity assay; assay type: cell-based, human
Method: as §1, §2

[14] = test system: Capan-2; test: MTT cytotoxicity assay; assay type: cell-based, human
Method: as §1, §2

[15] = test system: PANC-1; test: MTT cytotoxicity assay; assay type: cell-based, human
Method: as §1, §2

[16] = target: MraY (Hydrogenivirga sp.) (Hydrogenivirga sp. 128-5-R1-1, UniProt Z9Y2G8N0L0); test: MraY assay; assay type: biochemical
Method: Expression and purification of HyMraY. The gene mraY of Hydrogenivirga spp. 128-5-R1-1 was cloned with a N-terminal His6 tag into a pET22b vector. […] The proteins were purified using a nickel, cation exchange, and size exclusion chromatography.
MraY assay. MraY assay substrates, Park's nucleotide-N^ε-C6-dansylthiourea, neryl phosphate, were chemically synthesized according to the reported procedures.^7 Park's nucleotide-N^ε-C6-dansylthiourea (2 mM stock solution, 1.88 jiL), MgCl2 (0.5 M, 5 jiL), KCl (2 M, 5 jiL), Triton X-100 (0.5%, 5.63 jiL), Tris buffer (pH 8.0, 50 mM), neryl phosphate (0.1 M, 2.25 jiL), and inhibitor molecule (0-50 .ig/mL in Tris buffer) were placed in a 1.5 mL Eppendorf tube. […] (26° C.) and quenched with CHCl3 (100 jiL). […] The aqueous phase was assayed via reverse-phase HPLC.

[17] = test system: cell lines in Table 2; test: MTT assays, summary over the cell lines in Table 2; assay type: cell-based
Method: as §1, §2

[18] = test system: Myocobacterium tuberculosis H37Rv, Mycobacterium avium 2285, Mycobacterium smegmatis (ATCC607); test: Antimycobacterial activity (MIC); assay type: cell-based, Mycobacterium spp.; settings: at 50 μg/mL
[19] = target: T2, AglH (M. jannaschii) (Methanocaldococcus jannaschii, UniProt Q58513); test: AglH assay
T2 sequence (Q58513 1-301): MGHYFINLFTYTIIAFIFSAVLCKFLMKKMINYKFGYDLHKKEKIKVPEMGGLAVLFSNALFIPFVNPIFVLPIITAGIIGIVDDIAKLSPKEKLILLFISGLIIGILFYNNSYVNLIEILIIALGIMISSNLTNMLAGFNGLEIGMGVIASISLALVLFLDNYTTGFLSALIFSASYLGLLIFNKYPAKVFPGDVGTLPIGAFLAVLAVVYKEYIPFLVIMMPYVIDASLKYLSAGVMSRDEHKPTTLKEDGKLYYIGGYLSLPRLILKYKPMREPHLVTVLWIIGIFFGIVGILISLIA

[20] = test system: mice; settings: IP; cited from earlier work
[21] = test system: PD002; test: Scratch (wound healing) assay; assay type: cell-based; settings: 0.2 μM, 24 h; untreated PD002 63%
Method: Scratch Assay. A confluent monolayer was formed in 24-well plates. The monolayer was scratched by a sterile 200 μL pipette tip and washed with PBS to remove cell debris. Complete medium with CPPB (5) (0, 0.05, 0.1, 0.2 μM) were added and scratched areas were photographed with microscope. The scratched cells were incubated at 37° C., 5% CO2. After 24 h, medium was removed and cells were stained with a 1:1 mixture of crystal violet and PBS for 5 min., washed with PBS twice, and photographed with microscope. Wound areas were measured and recovered areas were calculated.

[22] = test system: DPAGT1; settings: background; cited from earlier work
[23] = test system: DPAGT1 gene; test: RT-qPCR analyses of DPAGT1 expression level; assay type: cell-based; settings: PD002
[24] = test system: DPAGT1; test: Immunofluorescent staining of DPAGT1 expression; assay type: cell-based
[25] = test system: MraY; settings: background; cited from earlier work

Sequence of MraY (Hydrogenivirga sp.) (Z9Y2G8N0L0 7-365 limits assumed): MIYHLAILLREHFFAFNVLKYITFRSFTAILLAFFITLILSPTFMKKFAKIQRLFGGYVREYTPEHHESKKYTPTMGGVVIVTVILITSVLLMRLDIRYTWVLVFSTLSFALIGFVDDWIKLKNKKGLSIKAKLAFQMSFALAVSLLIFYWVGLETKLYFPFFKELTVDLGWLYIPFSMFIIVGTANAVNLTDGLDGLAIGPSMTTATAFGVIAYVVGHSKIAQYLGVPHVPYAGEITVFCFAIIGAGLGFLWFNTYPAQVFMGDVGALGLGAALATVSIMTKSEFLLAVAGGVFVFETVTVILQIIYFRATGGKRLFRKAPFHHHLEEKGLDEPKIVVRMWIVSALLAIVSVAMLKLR
Sequence of WecA (E. coli) (P0AC78 whole entry): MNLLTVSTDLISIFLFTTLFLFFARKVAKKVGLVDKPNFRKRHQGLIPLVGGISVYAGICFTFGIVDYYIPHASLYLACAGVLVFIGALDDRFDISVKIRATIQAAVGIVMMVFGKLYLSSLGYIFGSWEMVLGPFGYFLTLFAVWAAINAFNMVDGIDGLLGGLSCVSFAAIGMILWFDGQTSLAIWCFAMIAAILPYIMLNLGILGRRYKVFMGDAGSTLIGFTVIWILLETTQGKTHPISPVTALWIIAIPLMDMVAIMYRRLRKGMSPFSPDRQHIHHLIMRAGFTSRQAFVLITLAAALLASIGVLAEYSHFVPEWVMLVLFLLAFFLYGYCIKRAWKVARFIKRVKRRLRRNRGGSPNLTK
Sequence of MraY/MurX (P9WMW7 whole entry): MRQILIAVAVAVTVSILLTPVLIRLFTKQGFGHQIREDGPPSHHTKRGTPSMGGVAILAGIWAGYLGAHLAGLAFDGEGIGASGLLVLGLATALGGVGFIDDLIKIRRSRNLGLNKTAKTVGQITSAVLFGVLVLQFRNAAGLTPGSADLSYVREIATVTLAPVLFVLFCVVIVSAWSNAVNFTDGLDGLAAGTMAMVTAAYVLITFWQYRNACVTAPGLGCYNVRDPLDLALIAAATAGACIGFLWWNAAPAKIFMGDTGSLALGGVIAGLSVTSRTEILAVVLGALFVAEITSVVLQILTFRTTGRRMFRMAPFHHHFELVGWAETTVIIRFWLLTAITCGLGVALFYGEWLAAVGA

Row | Compound | IC50 ([1]; read-out: IC50 WecA (E. coli)) | IC50 [2] | IC50 [3] | IC50 [4] | IC50 [5] | IC50 [6] | IC50 [7] | IC50 ([8]; 72 h) | IC50 ([9]; 72 h) | IC50 [10] | IC50 [12] | IC50 ([13]; 72 h) | IC50 ([14]; 72 h) | IC50 ([15]; 72 h) | IC50 [16] | WecA inhibitory activity (in words) [1] | IC50 ([2]; Chlorocebus sabaeus, Vero) | IC50 ([3]; PD002) | IC50 ([4]; HPNE) | IC50 ([5]; Homo sapiens, KB) | also measured
1 | CO[C@H]1[C@@H](OC)[C@H](n2ccc(=O)[nH]c2=O)O[C@@H]1[C@@H](O[C@H]1OC(C(=O)N[C@H]2CCCCNC2=O)=C[C@H](O)[C@@H]1O)C(N)=O [O-Methyl capuramycin] | 0.06 µM | > 50 µM | > 50 µM | > 50 µM | > 50 µM | > 50 µM | > 50 µM | > 50 µM | > 50 µM | ~0.06 µM | 4.5 µM | > 50 µM | > 50 µM | > 50 µM | > 50 µM |  |  |  |  |  | MraY/MurX inhibitory activity (in words) [11]: does not exhibit MraY/MurX inhibitory activity; IC50 ([12]; listed as OM-CAP): 3.5 µM
2 | CO[C@@H]1[C@H](O)[C@@H]([C@@H](O[C@H]2OC(C(=O)NCc3ccc(N4CCC(Oc5ccc(OC(F)(F)F)cc5)CC4)cc3)=C[C@H](O)[C@@H]2O)C(N)=O)O[C@H]1n1ccc(=O)[nH]c1=O |  |  |  |  |  |  |  |  |  |  |  |  |  |  |  | very weak | > 50 µM | 50 µM | > 50 µM | 35 µM | antiproliferative activity against Vero ([2]; at 50 μM, normal kidney cell): did not show antiproliferative activity; antiproliferative activity against HPNE ([4]; at 50 μM, normal pancreatic ductal cell): did not show antiproliferative activity; IC50 ([6]; Homo sapiens, SiHa): 25 µM; antiproliferative activity against L1210 ([7]; at 50 μM): did not show antiproliferative activity; IC50 ([8]; Homo sapiens, DLD-1, 72 h): 35 µM; IC50 ([9]; Homo sapiens, HCT-116, 72 h): 25 µM; IC50 ([17]; KB, SiHa, HCT-116, DLP-1, Capan-2, PANC-1, AsPC-1, PD002, MTT assays, read-out: IC50 range, growth inhibition of solid cancer cell lines): 15 to 40 µM; growth inhibitory activity against Mycobacterium spp. [18]: did not show growth inhibitory activity; DPAGT1 inhibitory activity (in words) [12]: high nM range DPAGT1 inhibitors; AglH inhibitory activity (in words) [19]: very weak; IC50 ([13]; Homo sapiens, ASPC1, 72 h): 30 µM; IC50 ([14]; Homo sapiens, Capan-2, 72 h): 40 µM; IC50 ([15]; Homo sapiens, PANC-1, 72 h): 45 µM; MraY inhibitory activity (in words) [16]: did not display MraY inhibitory activity
3 | Tunicamycin | 0.15 µM | 0.78 µM | 1.5 µM | 7.5 µM | 2.5 µM | 0.92 µM | 1.7 µM | 1.25 µM | 0.92 µM | 0.15 µM | 1.5 µM | 0.45 µM | 1.5 µM | 1.5 µM | 2.9 µM |  |  |  |  |  | LD100 [20]: 3.5 mg/kg; LDs50 [20]: 2.0 mg/kg; wound-healing rate [21]: 35%; IC50 ([17]; all cell lines in Table 2, read-out: IC50 range, growth inhibition of all cell lines in Table 2): 0.78 to 7.5 µM and 0.45 to 7.5 µM; IC50 [11]: 3.38 µM; IC50 [22]: 2.5 µM; IC50 ([19]; read-out: IC50 AglH (M. jannaschii)): 13.2 µM; DPAGT1 gene expression [23]: decreased; DPAGT1 protein expression [24]: decreased
4 | CO[C@H]1[C@@H](O)[C@H](n2ccc(=O)[nH]c2=O)O[C@@H]1[C@@H](O[C@H]1OC(C(=O)N[C@H]2CCCCNC2=O)=C[C@H](O)[C@@H]1O)C(N)=O [Capuramycin] |  |  |  |  |  |  |  |  |  |  |  |  |  |  | 0.13 µM | does not display inhibitory activity | > 50 µM | > 50 µM | > 50 µM | > 50 µM | IC50 [1]: > 50 µM; IC50 ([6]; Homo sapiens, SiHa): > 50 µM; IC50 ([7]; Mus musculus, L1210): > 50 µM; IC50 ([8]; Homo sapiens, DLD-1, 72 h): > 50 µM; IC50 ([9]; Homo sapiens, HCT-116, 72 h): > 50 µM; DPAGT1 inhibitory activity (in words) [12]: does not display inhibitory activity; AglH inhibitory activity (in words) [19]: does not display inhibitory activity; IC50 [19]: > 50 µM; IC50 [25]: 0.15 µM; IC50 ([13]; Homo sapiens, ASPC1, 72 h): > 50 µM; IC50 ([14]; Homo sapiens, Capan-2, 72 h): > 50 µM; IC50 ([15]; Homo sapiens, PANC-1, 72 h): > 50 µM; MraY inhibitory activity (in words) [16]: selective MraY inhibitor
